23 compounds from patent US6620828B2, “Thiazole compounds and pharmaceutical compositions for inhibiting protein kinases and methods for their use” (Agouron Pharmaceuticals, Inc., priority 1999, dated 2003) can be followed below.

Holding throughout (type): biochemical
The target in one assay is T1, CDK4/Cyclin D3 complex (Homo sapiens, UniProt P11802).
T1 construct: made in house; host or cells: insect cells co-infected with baculovirus vectors
In words: CDK4/Cyclin D assay. Conditions: 1.0 μM; combinatorial library compounds. The protocol:
CDK4/Cyclin D Construct for Assay: A complex of human CDK4 and cyclin D3, or a complex of cyclin DI and a fusion protein of human CDK4 and glutathione-S-transferase (GST-CDK4), was purified using traditional biochemical chromatographic techniques from insect cells that had been co-infected with the corresponding baculovirus expression vectors.
CDK2/Cyclin A and CDK4/Cyclin D Assays
Cyclin-dependent kinase activity was measured by quantifying the enzyme-catalyzed, time-dependent incorporation of radioactive phosphate from [^32P]ATP into a recombinant fragment of the retinoblastoma protein. Unless noted otherwise, assays were performed in 96-well plates in a total volume of 50 μL, in the presence of 10 mM HEPES (N-[2-hydroxyethyl]piperazine-N′-[2-ethanesulfonic acid]) (pH 7.4), 10 mM MgCl2, 25 μM adenosine triphosphate (ATP), 1 mg/mL ovalbumin, 5 μg/mL leupeptin, 1 mM dithiothreitol, 10 mM β-glycerophosphate, 0.1 mM sodium vanadate, 1 mM sodium fluoride, 2.5 mM ethylene glycol-bis(β-aminoethyl ether)-N,N,N′N′-tetraacetic acid (EGTA), 2% (v/v) dimethylsulfoxide, and 0.03-0.2 μCi [^32P]ATP. The substrate (0.3-0.5 μg) was purified recombinant retinoblastoma protein fragment (Rb) (residues 386-928 of the native retinoblastoma protein; 62.3 kDa, containing the majority of the phosphorylation sites found in the native 106-kDa protein, as well as a tag of six histidine residues for ease of purification). Reactions were initiated with CDK2 (150 nM CDK2/Cyclin A complex) or CDK4 (50 nM CDK4/Cyclin D3 complex), incubated at 30° C., and terminated after 20 minutes by the addition of ethylenediaminetetraacetic acid EDTA) to 250 mM. The phosphorylated substrate was then captured on a nitrocellulose membrane using a 96-well filtration manifold, and unincorporated radioactivity was removed by repeated washing with 0.85% phosphoric acid. Radioactivity was quantified by exposing the dried nitrocellulose membranes to a phosphorimager. Apparent Ki values were measured by assaying enzyme activity in the presence of different compound concentrations and subtracting the background radioactivity measured in the absence of enzyme. The kinetic parameters (kcat, Km for ATP) were measured for each enzyme under the usual assay conditions by determining the dependence of initial rates on ATP concentration. The data were fit to an equation for competitive inhibition using Kaleidagraph (Synergy Software), or were fit to an equation for competitive tight-binding inhibition using the software KineTic (BioKin, Ltd.). Measured Ki values for known inhibitors against CDK4 and CDK2 agreed with published IC50 values. The specific activity of CDK4 was the same whether complexed to full-length cyclin D3 or the truncated Cyclin D3 construct; both complexes also yielded very similar Ki values for selected inhibitors.

Assay [1] concerns the target T2, phosphorylated VEGF-R2Δ50 (FLVK-P) (Homo sapiens, UniProt P35968, DEL940-989/E990V).
T2 construct: VEGF-R2Δ50 contains residues 806-939 and 990-1171; made in house; host or cells: baculovirus/insect cells
Description: VEGF-R2 coupled spectrophotometric (FLVK-P) assay. Conditions: read-out: VEGF % inhibition at 20 μM, 20 μM; combinatorial library compounds. In short, it runs like this:
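Baculovirus-expressed human VEGF-R2Δ50 (residues 806-939/990-1171, E990V) was autophosphorylated with 3 mM ATP, 40 mM MgCl2 for 2 h at 4° C. ADP formation was coupled via PK/LDH to NADH oxidation, read at 340 nm, with 5.1 mM poly(E4Y1), 1 mM ATP, 25 mM MgCl2, Hepes pH 7.5. Ki came from activity across compound concentrations.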

The target in another assay is T3, FL-CHK1 (Homo sapiens, UniProt O14757).
T3 construct: C-terminally His-tagged full-length human CHK1 (FL-CHK1); 6xHis (C); made in house; host or cells: baculovirus/insect cells
T3 sequence (O14757 1-476): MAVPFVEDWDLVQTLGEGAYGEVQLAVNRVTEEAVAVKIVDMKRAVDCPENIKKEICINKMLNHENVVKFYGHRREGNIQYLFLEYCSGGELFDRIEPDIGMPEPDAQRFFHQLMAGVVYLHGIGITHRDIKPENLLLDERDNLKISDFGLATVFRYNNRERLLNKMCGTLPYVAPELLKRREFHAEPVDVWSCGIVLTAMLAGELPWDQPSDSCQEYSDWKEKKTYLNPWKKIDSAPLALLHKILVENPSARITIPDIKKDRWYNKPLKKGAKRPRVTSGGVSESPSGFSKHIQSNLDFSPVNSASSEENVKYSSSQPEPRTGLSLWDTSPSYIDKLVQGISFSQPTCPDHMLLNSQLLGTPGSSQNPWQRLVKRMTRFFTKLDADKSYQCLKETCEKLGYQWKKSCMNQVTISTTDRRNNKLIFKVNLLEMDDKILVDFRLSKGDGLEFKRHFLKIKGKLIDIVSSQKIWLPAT
Description: CHK1 assay. To be noted: 20 μM; combinatorial library compounds. The method, boiled down:
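Full-length human CHK1 with C-terminal 6×His tag, made in baculovirus/insect cells, 10 nM, phosphorylating 0.125 mM Syntide-2 with 0.15 mM ATP in 50 mM Tris pH 7.5, 25 mM MgCl2, 400 mM NaCl. PK/LDH-coupled NADH oxidation read at 340 nm. Ki from initial rates over varied compound concentrations.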

The next assay deals with CDK2/Cyclin A complex (Homo sapiens, UniProt P24941). Description: CDK2/Cyclin A assay. Conditions: 1.0 μM; combinatorial library compounds. The method, boiled down:
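Radiometric assay: 150 nM CDK2/cyclin A (insect-cell CDK2, truncated cyclin A) phosphorylates His-tagged Rb fragment (residues 386-928) with 25 μM ATP plus [32P]ATP, pH 7.4 HEPES, 2% DMSO, 30 °C for 20 min. Filter-captured product counted by phosphorimager; apparent Ki from competitive or tight-binding inhibition fits.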

T1 sequence (P11802 whole entry): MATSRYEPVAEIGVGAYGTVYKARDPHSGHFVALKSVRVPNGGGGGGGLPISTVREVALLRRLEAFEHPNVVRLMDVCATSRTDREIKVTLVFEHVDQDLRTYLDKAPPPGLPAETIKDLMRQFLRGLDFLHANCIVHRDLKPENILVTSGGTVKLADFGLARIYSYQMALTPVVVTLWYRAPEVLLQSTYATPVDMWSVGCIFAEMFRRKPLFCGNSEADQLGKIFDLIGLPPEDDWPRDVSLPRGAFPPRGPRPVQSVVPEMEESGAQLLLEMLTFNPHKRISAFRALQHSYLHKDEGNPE
T1 sequence (P30281 whole entry partner): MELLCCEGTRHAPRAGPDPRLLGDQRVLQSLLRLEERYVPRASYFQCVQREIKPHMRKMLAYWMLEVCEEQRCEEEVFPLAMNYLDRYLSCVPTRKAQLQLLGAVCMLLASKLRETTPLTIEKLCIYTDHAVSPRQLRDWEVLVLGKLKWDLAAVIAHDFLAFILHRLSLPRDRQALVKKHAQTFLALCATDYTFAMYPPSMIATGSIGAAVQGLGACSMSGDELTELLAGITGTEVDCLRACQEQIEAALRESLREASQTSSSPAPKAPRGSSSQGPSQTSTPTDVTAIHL
T2 sequence (P35968 with tags, fused parts or gaps DEL940-989/E990V limits assumed): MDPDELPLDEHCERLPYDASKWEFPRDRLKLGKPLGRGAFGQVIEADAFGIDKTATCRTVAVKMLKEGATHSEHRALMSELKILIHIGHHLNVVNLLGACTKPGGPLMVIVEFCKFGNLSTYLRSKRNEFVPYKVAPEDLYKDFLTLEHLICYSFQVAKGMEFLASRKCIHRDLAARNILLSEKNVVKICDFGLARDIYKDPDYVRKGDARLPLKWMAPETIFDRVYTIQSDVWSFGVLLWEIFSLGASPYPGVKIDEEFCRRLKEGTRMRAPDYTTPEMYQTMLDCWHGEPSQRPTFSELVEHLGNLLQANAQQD

The inhibition is the change of the read-out against control, counted positive when it falls. Regarding `Nc1nc(Nc2ccc(S(N)(=O)=O)cc2)sc1-c1nc(-c2ccc(O)c(O)c2)cs1`, the inhibition at 1 µM on CDK4/Cyclin D3 complex worked out at 57.2%; at CDK2/Cyclin A complex it was 55.9%. The inhibition at 20 µM was 49% in assay [1] and 28.5% on FL-CHK1.

On to `Nc1nc(Nc2ccc(S(N)(=O)=O)cc2)sc1-c1nc(-c2ccc3ccccc3c2)cs1`, for which the results for the inhibition at 1 µM on CDK4/Cyclin D3 complex and at CDK2/Cyclin A complex were -8.9% and 25.5%, respectively. For the same compound, the inhibition at 20 µM is 12% in assay [1] and 7.8% at FL-CHK1.

Consider `Cc1cc(-c2csc(-c3sc(Nc4ccc(S(N)(=O)=O)cc4)nc3N)n2)cs1`, for which the inhibition at 1 µM is 59.6% at CDK4/Cyclin D3 complex and 68.2% on CDK2/Cyclin A complex. The inhibition at 20 µM in assay [1] was 34%; on FL-CHK1, 26.6%.

On to `Nc1nc(Nc2ccc(S(N)(=O)=O)cc2)sc1-c1nc(-c2ccc[nH]2)cs1`, for which the inhibition at 1 µM on CDK4/Cyclin D3 complex was determined as 39.7%; at CDK2/Cyclin A complex, 14.6%. Moreover, the inhibition at 20 µM in assay [1] was found to be 13%; at FL-CHK1 it was 13.6%.

Turning to `Nc1nc(Nc2ccc(S(N)(=O)=O)cc2)sc1-c1nc(-c2ccc(F)c(F)c2)cs1`, the figures for the inhibition at 1 µM at CDK4/Cyclin D3 complex and at CDK2/Cyclin A complex were -5.3% and 12.4%, respectively. Further, the inhibition at 20 µM in assay [1] turned out to be 38%; on FL-CHK1, 17.5%.

With `Nc1nc(Nc2ccc(S(N)(=O)=O)cc2)sc1-c1nc(C2C=C([N+](=O)[O-])C=CC2)cs1` (centres unmarked), the inhibition at 1 µM on CDK4/Cyclin D3 complex was -28.6%; at CDK2/Cyclin A complex it was 17.8%. For the same compound, the inhibition at 20 µM in assay [1] was found to be 30%; on FL-CHK1 it was 10.8%.

Take `Nc1nc(Nc2ccc(S(N)(=O)=O)cc2)sc1-c1nc(-c2ccc(Cl)c(Cl)c2)cs1`: the inhibition at 1 µM on CDK4/Cyclin D3 complex was -3.1%; at CDK2/Cyclin A complex it was 1.3%. Moreover, the inhibition at 20 µM in assay [1] is 9%; at FL-CHK1, 11.7%.

As to `Cc1cc(-c2csc(-c3sc(Nc4ccc(S(N)(=O)=O)cc4)nc3N)n2)cc(C)c1O`, the inhibition at 1 µM at CDK4/Cyclin D3 complex was determined as 46%; at CDK2/Cyclin A complex, 40.7%. Moreover, the values for the inhibition at 20 µM (in assay [1]; on FL-CHK1) were 25% and 13.4%, respectively.

Turning to `Nc1nc(Nc2ccc(S(N)(=O)=O)cc2)sc1-c1nc(-c2c(Cl)c(Cl)nc(Cl)c2Cl)cs1`, the inhibition at 1 µM stood at 58% on CDK4/Cyclin D3 complex and 66.8% at CDK2/Cyclin A complex. Moreover, the inhibition at 20 µM in assay [1] turned out to be 11%; on FL-CHK1, 19.8%.

`Cc1ccc(-c2csc(-c3sc(Nc4ccc(S(N)(=O)=O)cc4)nc3N)n2)c(C)c1`: the inhibition at 1 µM on CDK4/Cyclin D3 complex was -13.5%; at CDK2/Cyclin A complex, 19.6%. Further, the figures for the inhibition at 20 µM (in assay [1]; on FL-CHK1) were 50% and 0.2%, respectively.

As for `Nc1nc(Nc2ccc(S(N)(=O)=O)cc2)sc1-c1nc(-c2ccc(CC(=O)O)s2)cs1`, the figures for the inhibition at 1 µM at CDK4/Cyclin D3 complex and on CDK2/Cyclin A complex were 65% and 51.6%, respectively. Also, the inhibition at 20 µM in assay [1] is 11%; at FL-CHK1 it was 11.3%.

For the compound `Nc1nc(Nc2ccc(S(N)(=O)=O)cc2)sc1-c1nc(-c2cccc(OC(=O)c3ccccc3)c2)cs1`, the inhibition at 1 µM is -1.9% on CDK4/Cyclin D3 complex and 37.2% on CDK2/Cyclin A complex. In addition, the inhibition at 20 µM in assay [1] is 43%; at FL-CHK1, 6.8%.

In the case of `COc1cc(OC)c(-c2csc(-c3sc(Nc4ccc(S(N)(=O)=O)cc4)nc3N)n2)c(O)c1Cl`, the inhibition at 1 µM on CDK4/Cyclin D3 complex is 62.5%; at CDK2/Cyclin A complex, 69.5%. In addition, the results for the inhibition at 20 µM (in assay [1]; at FL-CHK1) were 29% and 25.6%, respectively.

Turning to `Nc1nc(Nc2ccc(S(N)(=O)=O)cc2)sc1-c1nc(-c2ccc3oc4ccccc4c3c2)cs1`, the figures for the inhibition at 1 µM on CDK4/Cyclin D3 complex and on CDK2/Cyclin A complex were 57.5% and 45.7%, respectively. In addition, the results for the inhibition at 20 µM (in assay [1]; at FL-CHK1) were 18% and 18.3%, respectively.

Turning to `CC1(C)CCC(C)(C)c2cc(-c3csc(-c4sc(Nc5ccc(S(N)(=O)=O)cc5)nc4N)n3)ccc21`, the inhibition at 1 µM turned out to be 31.8% at CDK4/Cyclin D3 complex and 35.9% on CDK2/Cyclin A complex. The inhibition at 20 µM in assay [1] was -2%; on FL-CHK1, 13.1%.

Take `Nc1nc(Nc2ccc(S(N)(=O)=O)cc2)sc1-c1nc(-c2ccc(C(F)(F)F)cc2)cs1`: the inhibition at 1 µM on CDK4/Cyclin D3 complex is -3.6%; at CDK2/Cyclin A complex it was 4.5%. In addition, the figures for the inhibition at 20 µM (in assay [1]; on FL-CHK1) were 2% and 4.2%, respectively.

With `Nc1nc(Nc2ccc(S(N)(=O)=O)cc2)sc1-c1nc(-c2ccc3c(c2)CCC(=O)N3)cs1`, the values for the inhibition at 1 µM at CDK4/Cyclin D3 complex and on CDK2/Cyclin A complex were 42.2% and 56.6%, respectively. Besides, the results for the inhibition at 20 µM (in assay [1]; on FL-CHK1) were 7% and 15.3%, respectively.

Take `Nc1nc(Nc2ccc(S(N)(=O)=O)cc2)sc1-c1nc(-c2ccccc2OC(=O)c2ccccc2)cs1`: the inhibition at 1 µM at CDK4/Cyclin D3 complex amounted to 2.3%; on CDK2/Cyclin A complex it was 29%. In addition, the figures for the inhibition at 20 µM (in assay [1]; at FL-CHK1) were 9% and -1.6%, respectively.

For `CCc1cc2c(cc1-c1csc(-c3sc(Nc4ccc(S(N)(=O)=O)cc4)nc3N)n1)C(C)(C)CCC2(C)C`, the inhibition at 1 µM at CDK4/Cyclin D3 complex was -3.5%; on CDK2/Cyclin A complex it was 14.1%. Besides, the inhibition at 20 µM is -2% in assay [1] and 1.3% at FL-CHK1.

As for `COc1ccc2nc(-c3ccccc3)c(-c3csc(-c4sc(Nc5ccc(S(N)(=O)=O)cc5)nc4N)n3)cc2c1`, the inhibition at 1 µM turned out to be 53.4% on CDK4/Cyclin D3 complex and 61.4% at CDK2/Cyclin A complex. Moreover, the values for the inhibition at 20 µM (in assay [1]; on FL-CHK1) were 3% and 9.7%, respectively.

Take `Cc1c(-c2csc(-c3sc(Nc4ccc(S(N)(=O)=O)cc4)nc3N)n2)sc2ccccc12`: the figures for the inhibition at 1 µM at CDK4/Cyclin D3 complex and at CDK2/Cyclin A complex were -0.3% and 9.2%, respectively. Also, the inhibition at 20 µM in assay [1] was determined as 3%; on FL-CHK1 it was 5.6%.

For `CC(C)(C)c1cc(-c2csc(-c3sc(Nc4ccc(S(N)(=O)=O)cc4)nc3N)n2)cc(C(C)(C)C)c1O`, the results for the inhibition at 1 µM at CDK4/Cyclin D3 complex and at CDK2/Cyclin A complex were 17% and 25%, respectively. Besides, the inhibition at 20 µM was -9% in assay [1] and 17.5% on FL-CHK1.

As for `COc1cccc(-c2csc(-c3sc(Nc4ccc(C(C)C)cc4)nc3N)n2)c1`, the inhibition at 1 µM on CDK4/Cyclin D3 complex was 49.3%; at CDK2/Cyclin A complex it was 16%. Also, the inhibition at 20 µM was found to be 10% in assay [1] and 3.8% on FL-CHK1.
